Measured values published in patent publication US11104674B2 (Hoffmann-La Roche Inc., priority 2016, dated 2021).

system: HBsAg; assay: HBsAg assay (chemiluminescence immunoassay of secreted HBsAg); format: cell-based, HBV; conditions: Hepatitis B virus, HepG2.2.15, HBsAg secretion, HepG2.2.15 cells, CLIA of culture supernatant
Method: HepG2.2.15 cells (Acs et al. Proc Natl Acad Sci USA, 84, (1987), 4641-4), a constitutively HBV-expressing cell line were cultured in DMEM+Glutamax-I medium (Invitrogen, Carlsbad, Calif., USA), supplemented with 10% fetal bovine serum (Invitrogen) and G418 (Invitrogen) at a final concentration of 200 mg/L and maintained in 5% CO2 at 37° C.
HepG2.2.15 cells were seeded in duplicate into white, 96-well plates at 1.5×10^4 cells/well. The cells were treated with a three-fold serial dilution series of the compounds in DMSO. The final DMSO concentration in all wells was 1% and DMSO was used as no drug control.
The HBsAg chemiluminescence immunoassay (CLIA) kit (Autobio Diagnostics Co., Zhengzhou, China, Catalog number: CL0310-2) was used to measure the levels of secreted HBV antigens semi-quantitatively. For the detection 50 μL/well culture supernatant was used and HBsAg was quantified using HBsAg chemiluminescence immunoassay (CLIA) kit (Autobio Diagnostics Co., Zhengzhou, China, Catalog number: CL0310-2), 50 μL of the supernatant was transferred to the CLIA assay plate and 50 μL of enzyme conjugate reagent was added into each well. The plates were sealed and gently agitated for 1 hour at room temperature. The supernatant-enzyme-mixture was discarded and wells were washed 6 times with 300 μL of PBS.
The residual liquid was removed by plating the CLIA plate right side down on absorbent tissue paper. 25 μL of substrates A and B were added to each well. Luminance was measured using a luminometer (Mithras LB 940 Multimode Microplate Reader) after 10 minutes incubation. Dose-response curves were generated and the IC50 value was extrapolated by using the E-WorkBook Suite (ID Business Solutions Ltd., Guildford, UK). The IC50 was defined as the compound concentration (or conditioned media log dilution) at which HBsAg secretion was reduced by 50% compared to the no drug control.
The compounds according to formula I were tested for their capacity to inhibit HBsAg as described herein.

| SMILES | IC50 [nM] |
| --- | --- |
| CC1c2cnc(-c3ncccn3)nc2CCN1c1cc(F)cc(N2CC(F)C2)n1 (stereo not drawn) [Example 122, 6-[4-fluoro-6-(3-fluoroazetidin-1-yl)-2-pyridyl]-5-methyl-2-pyrimidin-2-yl-7,8-dihydro-5H-pyrido[4,3-d]pyrimidine] | 28 |
| CC(=O)N1CC(Nc2cc(F)nc(N3CCc4nc(-c5ncccn5)ncc4C3C)c2)C1 (stereo not drawn) [Example 140, 1-[3-[[2-fluoro-6-(5-methyl-2-pyrimidin-2-yl-7,8-dihydro-5H-pyrido[4,3-d]pyrimidin-6-yl)-4-pyridyl]amino]azetidin-1-yl]ethanone] | 972 |
| CC1c2cnc(-c3ncccn3)nc2CCN1c1cc(N(C)S(C)(=O)=O)cc(F)n1 (stereo not drawn) [Example 159, N-[2-fluoro-6-(5-methyl-2-pyrimidin-2-yl-7,8-dihydro-5H-pyrido[4,3-d]pyrimidin-6-yl)-4-pyridyl]-N-methyl-methanesulfonamide] | 14 |
| CC1c2cnc(-c3ncccn3)nc2CCN1c1cc(F)cc(N2CC(CO)C2)n1 (stereo not drawn) [Example 136, [1-[4-fluoro-6-(5-methyl-2-pyrimidin-2-yl-7,8-dihydro-5H-pyrido[4,3-d]pyrimidin-6-yl)-2-pyridyl]azetidin-3-yl]methanol] | 23 |
| CC1c2cnc(-c3ncccn3)nc2CCN1c1cc(F)cc(N2CCN(CC(N)=O)CC2)n1 (stereo not drawn) [Example 101, 2-[4-[4-fluoro-6-(5-methyl-2-pyrimidin-2-yl-7,8-dihydro-5H-pyrido[4,3-d]pyrimidin-6-yl)-2-pyridyl]piperazin-1-yl]acetamide] | 60 |
| CC(=O)NC1CN(c2cc(F)cc(N3CCc4nc(-c5ncccn5)ncc4C3C)n2)C1 (stereo not drawn) [Example 131, N-[1-[4-fluoro-6-(5-methyl-2-pyrimidin-2-yl-7,8-dihydro-5H-pyrido[4,3-d]pyrimidin-6-yl)-2-pyridyl]azetidin-3-yl]acetamide] | 43 |
| COC1CCN(c2cc(F)cc(N3CCc4nc(-c5ccccn5)ncc4C3C)n2)C1 (stereo not drawn) [Example 84, 6-[4-fluoro-6-(3-methoxypyrrolidin-1-yl)-2-pyridyl]-5-methyl-2-(2-pyridyl)-7,8-dihydro-5H-pyrido[4,3-d]pyrimidine] | 23 |
| CC1c2cnc(-c3ncccn3)nc2CCN1c1cc(N2CC(NS(C)(=O)=O)C2)cc(F)n1 (stereo not drawn) [Example 119, N-[1-[2-fluoro-6-(5-methyl-2-pyrimidin-2-yl-7,8-dihydro-5H-pyrido[4,3-d]pyrimidin-6-yl)-4-pyridyl]azetidin-3-yl]methanesulfonamide] | 57 |
| CC1c2cnc(-c3ncccn3)nc2CCN1c1cc(N2CC(F)(F)C2)cc(F)n1 (stereo not drawn) [Example 126, 6-[4-(3,3-difluoroazetidin-1-yl)-6-fluoro-2-pyridyl]-5-methyl-2-pyrimidin-2-yl-7,8-dihydro-5H-pyrido[4,3-d]pyrimidine] | 12 |
| CC1c2cnc(-c3ccccn3)nc2CCN1c1cc(F)cc(N2CCC(C(=O)NS(C)(=O)=O)C2)n1 (stereo not drawn) [Example 85, 1-[4-fluoro-6-[5-methyl-2-(2-pyridyl)-7,8-dihydro-5H-pyrido[4,3-d]pyrimidin-6-yl]-2-pyridyl]-N-methylsulfonyl-pyrrolidine-3-carboxamide] | 264 |
| COC1CN(c2cc(N3CCc4nc(-c5ncccn5)ncc4C3C)cc(F)n2)C1 (stereo not drawn) [Example 148, 6-[2-Fluoro-6-(3-methoxyazetidin-1-yl)-4-pyridyl]-5-methyl-2-pyrimidin-2-yl-7,8-dihydro-5H-pyrido[4,3-d]pyrimidine] | 21 |
| CC1c2cnc(-c3ncccn3)nc2CCN1c1cc(F)cc(NS(=O)(=O)c2ccccc2)n1 (stereo not drawn) [Example 78, N-[4-fluoro-6-(5-methyl-2-pyrimidin-2-yl-7,8-dihydro-5H-pyrido[4,3-d]pyrimidin-6-yl)-2-pyridyl]benzenesulfonamide] | 263 |
| CC1c2cnc(-c3ncccn3)nc2CCN1c1cc(NC(=O)CO)cc(F)n1 (stereo not drawn) [Example 3, N-[2-Fluoro-6-(5-methyl-2-pyrimidin-2-yl-7,8-dihydro-5H-pyrido[4,3-d]pyrimidin-6-yl)-4-pyridyl]-2-hydroxy-acetamide] | 60 |
| CC1c2cnc(-c3ncccn3)nc2CCN1c1cc(N2CC3(COC3)C2)cc(F)n1 (stereo not drawn) [Example 130, 6-[2-fluoro-6-(5-methyl-2-pyrimidin-2-yl-7,8-dihydro-5H-pyrido[4,3-d]pyrimidin-6-yl)-4-pyridyl]-2-oxa-6-azaspiro[3.3]heptane] | 12 |
| CC(=O)NC1CN(c2cc(F)nc(N3CCc4nc(-c5ncccn5)ncc4C3C)c2)C1 (stereo not drawn) [Example 132, N-[1-[2-fluoro-6-(5-methyl-2-pyrimidin-2-yl-7,8-dihydro-5H-pyrido[4,3-d]pyrimidin-6-yl)-4-pyridyl]azetidin-3-yl]acetamide] | 24 |
| CC1c2cnc(-c3ncccn3)nc2CCN1c1cc(F)cc(N2CCC(C(=O)O)C2)n1 (stereo not drawn) [Example 39, 1-[4-fluoro-6-(5-methyl-2-pyrimidin-2-yl-7,8-dihydro-5H-pyrido[4,3-d]pyrimidin-6-yl)-2-pyridyl]pyrrolidine-3-carboxylic acid] | 108 |
| CC1c2cnc(-c3ncccn3)nc2CCN1c1cc(N2CCC(NS(C)(=O)=O)CC2)cc(F)n1 (stereo not drawn) [Example 88, N-[1-[2-fluoro-6-(5-methyl-2-pyrimidin-2-yl-7,8-dihydro-5H-pyrido[4,3-d]pyrimidin-6-yl)-4-pyridyl]-4-piperidyl]methanesulfonamide] | 18 |
| CC1c2cnc(-c3ccccn3)nc2CCN1c1cc(F)cc(N2CCCC(C(N)=O)C2)n1 (stereo not drawn) [Example 76, 1-[4-fluoro-6-[5-methyl-2-(2-pyridyl)-7,8-dihydro-5H-pyrido[4,3-d]pyrimidin-6-yl]-2-pyridyl]piperidine-3-carboxamide] | 44 |
| COCC1CN(c2cc(F)cc(N3CCc4nc(-c5ncccn5)ncc4C3C)n2)CCO1 (stereo not drawn) [Example 15, 4-[4-fluoro-6-(5-methyl-2-pyrimidin-2-yl-7,8-dihydro-5H-pyrido[4,3-d]pyrimidin-6-yl)-2-pyridyl]-2-(methoxymethyl)morpholine] | 30 |
| CC1c2cnc(-c3ncccn3)nc2CCN1c1cc(F)cc(N2CCOC(C(N)=O)C2)n1 (stereo not drawn) [Example 47, 4-[4-fluoro-6-(5-methyl-2-pyrimidin-2-yl-7,8-dihydro-5H-pyrido[4,3-d]pyrimidin-6-yl)-2-pyridyl]morpholine-2-carboxamide] | 33 |
| CCC1CN(c2cc(F)nc(N3CCc4nc(-c5ncccn5)ncc4C3C)c2)CCO1 (stereo not drawn) [Example 6, 2-ethyl-4-[2-fluoro-6-(5-methyl-2-pyrimidin-2-yl-7,8-dihydro-5H-pyrido[4,3-d]pyrimidin-6-yl)-4-pyridyl]morpholine] | 9 |
| CC1c2cnc(-c3ncccn3)nc2CCN1c1cc(NC2CNC2)cc(F)n1 (stereo not drawn) [Example 121, N-(azetidin-3-yl)-2-fluoro-6-(5-methyl-2-pyrimidin-2-yl-7,8-dihydro-5H-pyrido[4,3-d]pyrimidin-6-yl)pyridin-4-amine] | 496 |
| CC1CN(c2cc(F)nc(N3CCc4nc(-c5ncccn5)ncc4C3C)c2)CCO1 (stereo not drawn) [Example 4, 4-[2-fluoro-6-(5-methyl-2-pyrimidin-2-yl-7,8-dihydro-5H-pyrido[4,3-d]pyrimidin-6-yl)-4-pyridyl]-2-methyl-morpholine] | 8 |
| COCC1CCCN1c1cc(F)nc(N2CCc3nc(-c4ncccn4)ncc3C2C)c1 (stereo not drawn) [Example 34, 6-[6-fluoro-4-[2-(methoxymethyl)pyrrolidin-1-yl]-2-pyridyl]-5-methyl-2-pyrimidin-2-yl-7,8-dihydro-5H-pyrido[4,3-d]pyrimidine] | 54 |
